In patent EP0616805A1, “Use of acyl L-carnitine gamma-hydroxybutyrate for the treatment of alcoholism” (Sigma-Tau Industrie Farmaceutiche Riunite S.p.A., priority 1993, dated 1994):

Assays:
Type in all cases: in vivo, Wistar male rats
alcohol-dependent rats = experiment: modified Vogel test (licks at shock-linked drinking vessel) in alcohol-dependent rats; conditions: 100 mg/kg intraperitoneal at ethanol suspension; rats given 10% ethanol for 6 months; 10 min. exposure period; saline group 38.5 ± 8.5
Description: Wistar male rats (housed in groups of 5 per cage) were used, kept in conditions of constant light-dark alternation at 21°C and fed with standard laboratory feed. The animals were chronically administered 10% ethanol ad lib. for 6 months.
To assess the activity, if any, of VCGB on the anxiety component involved in the compulsive act of searching for alcohol, a modified version of the Vogel test was used as described by Keppler D. et al. in Exp. Mol. Path. 9, 279 (1968).
Prior to the start of the experiment the animals were deprived of water for 48 h. At the time of ethanol treatment suspension, the animals were divided into 4 groups who were given the following intraperitoneal administrations: the first group (A) received saline solution (15 ml/kg), the second group (B) VCGB (100 mg/kg), the third group (C) GHB (100 mg/kg) and the fourth group (D) IVC ([…]).
On the day of the test, the animals were provided with two drinking vessels, one containing water and the other a mixture of water and ethanol (90:10 v/v) in bottles, the metal spouts of which were connected up to a source of electricity: after every 5 licks at the drinking vessel an electric shock (1 mA) was delivered for 10 min. which obliged the animal to withdraw, overcoming its desire to drink the water-alcohol solution. Refusal of the animals to drink the water-alcohol solution, confining their attention only to the vessel containing water alone, was taken as an indication of efficacy. In evaluating the results, the numbers of licks were compared for treated animals versus controls over the 10 min. exposure period.

[1] = test system: rats chronically administered 10% ethanol; experiment: alcohol withdrawal syndrome: tremors by the Hunt-Majchrowicz method; conditions: 100 mg/kg intraperitoneal, eight hours after suspension of ethanol; for number of tremors, 30 min: saline group 6 ± 2.5; for number of tremors, 60 min: saline group 8 ± 1.5; for number of tremors, 90 min: saline group 7 ± 1.5; for number of tremors, 120 min: saline group 8 ± 2.5
Description: The experiment was performed in Wistar male rats housed in groups of 5 per cage under conditions of constant light-dark alternation at 21°C and fed with standard laboratory feed. The animals were chronically administered 10% ethanol ad lib. for 6 months.
Eight hours after suspension of ethanol administration, the animals were divided into 4 groups of 5 rats each.
The first group (A) was administered saline solution intraperitoneally (15 ml/kg), the second group (B) was given VCGB (100 mg/kg), again intraperitoneally, the third group (C) received GHB (100 mg/kg), while the fourth group (D) was given IVC (100 mg/kg). For the purposes of assessing the effects induced by the above-mentioned treatments on occurrence of alcohol withdrawal syndrome, tremors were measured in the rat, where, as in man, they are the most characteristic sign of withdrawal syndrome. Evaluation of the number of tremors was done using the method described by Hunt and Majchrowicz (see Hunt W.A. and Majchrovicz E., Journal of Pharmacology and Experimental Therapeutics, 213, 9-12 (1980). The results are given here below in Table 2. TABLE 2.

[2] = test system: rats chronically treated with alcohol; experiment: alcohol withdrawal syndrome: convulsions on sound stimulation (electric bell, 100 dB, 1 min); conditions: 100 mg/kg intraperitoneal, eight hours after suspension of ethanol; test one hour after treatment; saline group 9/10
Description: The experiment was performed in Wistar male rats housed in groups of 5 per cage under constant light-dark alternation at 21°C and fed with standard laboratory feed. The animals were chronically administered 10% ethanol ad lib. for 6 months.
Eight hours after suspension of ethanol administration the animals were divided into 4 groups of 10 rats each. The first group (A) were administered saline solution (15 ml/kg) intraperitoneally, the second group (B) VCGB (100 mg/kg), again intraperitoneally, the third group (C) GHB (100 mg/kg) and the last group (D) IVC (100 mg/kg). For the purposes of evaluating the effects of the treatment on occurrence of alcohol withdrawal syndrome, the rats' susceptibility to onset of behavioral reactions (convulsions) due to emission of sound for 1 min by an electric bell (100 dB) was observed. The experiment was performed in all groups of rats one hour after treatment, and the results are given here below in Table 3.

[3] = test system: lipoperoxidation in the CNS of rats; experiment: lipoperoxidation in the CNS: cerebral malonaldehyde (MDA) after chronic ethanol treatment; conditions: brain homogenate; 10% ethanol for two months, then 100 mg/kg single intraperitoneal dose; Control 0.543 ± 0.19, Ethanol 1.12 ± 0.13
Description: This study was conducted in order to assess what variations in malonaldehyde (MDA) occur following VCGB administration, MDA being a reliable and quantifiable index of the vulnerability of the central nervous system to damage due to free radicals as a result of the detrimental effects of ethanol.
The experiment was conducted in Wistar male rats housed in groups of 5 per cage under constant light-dark alternation at 21°C and fed with standard laboratory feed. Two groups of rats, each comprising 5 animals, were administered 10% ethanol in water throughout the treatment period. A third group of animals was kept on a standard laboratory diet without receiving any treatment. After two months of ethanol treatment the animals in the first group were administered VCGB in aqueous solution (100 mg/kg) in a single intraperitoneal dose. A few days after treatment, the animals were sacrificed and the brains promptly removed. MDA was measured using a modified micromethod described by Slater and Sawyer (Slater T. F. and Sawyer B. C., 1971, J. Biochem. Tokyo 8: 2180). […] The samples were placed in boiling water for 10 min, and after cooling absorbance was determined at 532 nm using a spectrophotometer. […] Proteins were measured by the Smith method (Smith et al., 1985, Analyt. Biochem. 27: 502), using bicinchoninic acid as reagent. […]

| SMILES | Number of licks (alcohol-dependent rats) | number of tremors, 30 min [1] | number of tremors, 60 min [1] | number of tremors, 90 min [1] | number of tremors, 120 min [1] | Animals with convulsions/animals treated [2] | MDA [3] [nmol/mg protein] |
| --- | --- | --- | --- | --- | --- | --- | --- |
| CC(C)CC(=O)O[C@H](CC(=O)OCCCC(=O)[O-])C[N+](C)(C)C [VCGB, isovaleryl L-carnitine gamma-hydroxybutyrate] | 5.6 ± 1.14 | 0 ± 0.25 | 0 ± 0 | 0 ± 0.75 | 0 ± 0.25 | 1/10 | 0.497 ± 0.15 |
| CC(C)CC(=O)O[C@H](CC(=O)[O-])C[N+](C)(C)C [IVC, isovaleryl L-carnitine] | 35.2 ± 7.4 | 4 ± 2 | 5 ± 2 | 5 ± 1.5 | 6 ±2 | 6/10 | – |
| O=C(O)CCCO [GHB, gamma-hydroxybutyric acid] | 11 ± 2.4 ▲ | 2 ± 0.5 | 1 ± 0.5 | 2 ± 1 | 3 ± 1 | 4/10 | – |
